Data reported in ChEMBL document CHEMBL1681640, “Serendipitous discovery of a new class of agonists for the melanocortin 1 and 4 receptors and a new class of cyclophanes” (Bioorg Med Chem Lett, 2011).
Activity calls are given as the source filed them. No cut-off for these calls is given here.

How the values were obtained:
Melanocortin receptor 4 [1] = molecular target: T1, Melanocortin receptor 4 (Homo sapiens, UniProt P32245); assay: Inhibition of human MC4 receptor expressed in BHK cells in presence of SHU9119 receptor antagonist
Target sequence in this assay (P32245 whole entry, looked up): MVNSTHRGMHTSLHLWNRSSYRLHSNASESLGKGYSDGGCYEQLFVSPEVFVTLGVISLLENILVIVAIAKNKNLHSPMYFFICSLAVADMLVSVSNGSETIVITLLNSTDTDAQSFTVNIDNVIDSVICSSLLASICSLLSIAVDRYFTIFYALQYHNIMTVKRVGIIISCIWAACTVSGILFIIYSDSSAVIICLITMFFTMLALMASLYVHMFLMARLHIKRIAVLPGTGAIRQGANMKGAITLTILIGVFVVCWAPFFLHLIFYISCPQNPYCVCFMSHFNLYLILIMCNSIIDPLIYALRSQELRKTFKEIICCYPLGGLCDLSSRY

Melanocortin receptor 4 [2] = molecular target: T1, Melanocortin receptor 4; assay: Displacement of [125I]NDP-alpha-MSH from human MC4 receptor expressed in BHK cells; format: cell-based
Target sequence in this assay (P32245 whole entry): as the sequence (P32245 whole entry, looked up) above

Melanocortin receptor 3 [3] = molecular target: T2, Melanocortin receptor 3 (Homo sapiens, UniProt P41968); assay: Agonist activity at human MC3 receptor expressed in BHK cells assessed as stimulation of agonist-induced cAMP accumulation; format: functional, cell-based
T2 sequence (P41968 whole entry): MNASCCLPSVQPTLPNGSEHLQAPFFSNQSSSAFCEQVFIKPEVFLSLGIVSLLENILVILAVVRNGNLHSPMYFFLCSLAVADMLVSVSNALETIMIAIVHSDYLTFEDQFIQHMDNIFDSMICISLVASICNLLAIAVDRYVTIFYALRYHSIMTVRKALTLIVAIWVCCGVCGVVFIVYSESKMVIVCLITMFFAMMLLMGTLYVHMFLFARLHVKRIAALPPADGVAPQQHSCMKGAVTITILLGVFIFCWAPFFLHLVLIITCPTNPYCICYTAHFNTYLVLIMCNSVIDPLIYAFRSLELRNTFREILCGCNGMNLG

Melanocortin receptor 4 [4] = molecular target: T1, Melanocortin receptor 4; assay: Agonist activity at human MC4 receptor expressed in BHK cells assessed as stimulation of agonist-induced cAMP accumulation; format: functional, cell-based
Target sequence in this assay (P32245 whole entry): as the sequence (P32245 whole entry, looked up) above

[5] = molecular target: T3, Melanocyte-stimulating hormone receptor (Homo sapiens, UniProt Q01726); assay: Agonist activity at human MC1 receptor expressed in BHK cells assessed as stimulation of agonist-induced cAMP accumulation relative to agonist; format: functional, cell-based
Target sequence in this assay (Q01726 whole entry, looked up): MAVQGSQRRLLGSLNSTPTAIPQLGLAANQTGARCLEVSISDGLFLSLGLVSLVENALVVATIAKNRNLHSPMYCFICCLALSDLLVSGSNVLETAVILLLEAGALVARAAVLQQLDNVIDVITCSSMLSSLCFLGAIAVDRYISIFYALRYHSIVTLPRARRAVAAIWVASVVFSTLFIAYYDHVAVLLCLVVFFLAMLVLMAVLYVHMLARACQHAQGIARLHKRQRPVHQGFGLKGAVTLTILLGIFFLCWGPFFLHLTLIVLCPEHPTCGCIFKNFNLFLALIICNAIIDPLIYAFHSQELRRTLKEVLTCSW

Melanocortin receptor 5 [6] = molecular target: T4, Melanocortin receptor 5 (Homo sapiens, UniProt P33032); assay: Displacement of [125I]NDP-alpha-MSH from human MC5 receptor expressed in BHK cells; format: cell-based
T4 sequence (P33032 whole entry): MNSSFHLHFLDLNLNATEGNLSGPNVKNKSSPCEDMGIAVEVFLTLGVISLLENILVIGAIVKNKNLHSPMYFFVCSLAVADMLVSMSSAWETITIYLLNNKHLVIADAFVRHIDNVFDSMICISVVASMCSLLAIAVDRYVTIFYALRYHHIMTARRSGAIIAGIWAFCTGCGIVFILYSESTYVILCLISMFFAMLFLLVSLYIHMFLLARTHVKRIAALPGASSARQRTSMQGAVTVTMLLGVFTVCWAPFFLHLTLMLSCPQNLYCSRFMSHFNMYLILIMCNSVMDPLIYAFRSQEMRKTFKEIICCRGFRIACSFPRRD

Rattus norvegicus = assay: Reduction in food intake in Sprague-Dawley rat at 0.1 to 1 mg/kg, ip for first 3 hrs; format: functional, organism-based
Melanocortin receptor 3 [7] = molecular target: T2, Melanocortin receptor 3; assay: Displacement of [125I]NDP-alpha-MSH from human MC3 receptor expressed in BHK cells; format: cell-based
[8] = molecular target: T3, Melanocyte-stimulating hormone receptor; assay: Displacement of [125I]NDP-alpha-MSH from human MC1 receptor expressed in BHK cells; format: cell-based
Target sequence in this assay (Q01726 whole entry): as the sequence (Q01726 whole entry, looked up) above

Melanocortin receptor 4 [9] = molecular target: T1, Melanocortin receptor 4; assay: Agonist activity at human MC4 receptor expressed in BHK cells assessed as stimulation of agonist-induced cAMP accumulation relative to agonist; format: functional, cell-based
Target sequence in this assay (P32245 whole entry): as the sequence (P32245 whole entry, looked up) above

[10] = molecular target: T3, Melanocyte-stimulating hormone receptor; assay: Agonist activity at human MC1 receptor expressed in BHK cells assessed as stimulation of agonist-induced cAMP accumulation; format: functional, cell-based
Target sequence in this assay (Q01726 whole entry): as the sequence (Q01726 whole entry, looked up) above

Melanocortin receptor 5 [11] = molecular target: T4, Melanocortin receptor 5; assay: Agonist activity at human MC5 receptor expressed in BHK cells assessed as stimulation of agonist-induced cAMP accumulation; format: functional, cell-based

Row | SMILES | inhibition (Melanocortin receptor 4 [1]) | Ki (Melanocortin receptor 4 [2]) [nM] | EC50 (Melanocortin receptor 3 [3]) [nM] | EC50 (Melanocortin receptor 4 [4]) [nM] | Emax [5] [%] | Ki (Melanocortin receptor 5 [6]) [nM] | Activity (Rattus norvegicus) | Ki (Melanocortin receptor 3 [7]) [nM] | Ki [8] [nM] | Emax (Melanocortin receptor 4 [9]) [%] | EC50 [10] [nM] | EC50 (Melanocortin receptor 5 [11]) [nM]
1 | COCC(=O)N[C@H]1Cc2ccc(OC)c(c2)Cc2ccc(cc2)Oc2cccc(c2)CN(CCCN2CCN(CCCN)CC2)C1=O | Active | 392 | > 10000 | 466 | 83 | 388 | Active | 1180 | 116 | 61 | 16 | > 10000
2 | COCC(=O)N[C@H]1Cc2cc3c(c(c2)Cc2ccc(cc2)Oc2cccc(c2)CN(CCCN2CCN(CCCN)CC2)C1=O)OCOC3 | Active | 403 | > 10000 | 697 | 85 | 1530 |  | 4530 | 328 | 98 | 12 | > 10000
